# Measured values taken from US7417156B2, “Orally active, antimalarial, anticancer, artemisinin-derived trioxane dimers” (Johns Hopkins University, priority 2002, dated 2008).
# Key:
# [1] = system: ACHN; assay: NCI 60 cell line panel screen (SRB); assay type: cell-based, human
# [2] = system: LOX IMVI; assay: NCI 60 cell line panel screen (SRB); assay type: cell-based, human
# [3] = system: OVCAR-4; assay: NCI 60 cell line panel screen (SRB); assay type: cell-based, human
# [4] = system: HCC-2998; assay: NCI 60 cell line panel screen (SRB); assay type: cell-based, human
# [5] = system: SW-620; assay: NCI 60 cell line panel screen (SRB); assay type: cell-based, human
# [6] = system: M14; assay: NCI 60 cell line panel screen (SRB); assay type: cell-based, human; conditions: for Log10LC50: M14 (Melanoma), LC50: PG=−50; for Log10TGI50: M-14 (Melanoma), TGI: PG=0; for Log10GI50: Melanoma, M14
# [7] = system: KM12; assay: NCI 60 cell line panel screen (SRB); assay type: cell-based, human; conditions: for Log10GI50: Colon Cancer, KM12; for Log10LC50 / Log10TGI50: KM12 (Colon Cancer); for Log10LC50: LC50: PG=−50; for Log10TGI50: TGI: PG=0
# [8] = system: A498; assay: NCI 60 cell line panel screen (SRB); assay type: cell-based, human
# [9] = system: SF-268; assay: NCI 60 cell line panel screen (SRB); assay type: cell-based, human; conditions: for Log10GI50: CNS Cancer, SF-268; for Log10LC50 / Log10TGI50: SF-268 (CNS Cancer); for Log10LC50: LC50: PG=−50; for Log10TGI50: TGI: PG=0
# [10] = system: HOP-92; assay: NCI 60 cell line panel screen (SRB); assay type: cell-based, human; conditions: for Log10LC50 / Log10TGI50: HOP-92 (Non-Small Cell Lung Cancer); for Log10LC50: LC50: PG=−50; for Log10TGI50: TGI: PG=0; for Log10GI50: Non-Small Cell Lung Cancer, HOP-92
# [11] = system: OVCAR-5; assay: NCI 60 cell line panel screen (SRB); assay type: cell-based, human; conditions: for Log10LC50 / Log10TGI50: OVCAR-5 (Ovarian Cancer); for Log10LC50: LC50: PG=−50; for Log10TGI50: TGI: PG=0; for Log10GI50: Ovarian Cancer, OVCAR-5
# [12] = system: UACC-62; assay: NCI 60 cell line panel screen (SRB); assay type: cell-based, human; conditions: UACC-62 (Melanoma)
# [13] = system: SN12C; assay: NCI 60 cell line panel screen (SRB); assay type: cell-based, human
# [14] = system: U251; assay: NCI 60 cell line panel screen (SRB); assay type: cell-based, human; conditions: for Log10GI50: CNS Cancer, U251; for Log10LC50 / Log10TGI50: U251 (CNS Cancer); for Log10LC50: LC50: PG=−50; for Log10TGI50: TGI: PG=0
# [15] = system: SK-OV-3; assay: NCI 60 cell line panel screen (SRB); assay type: cell-based, human; conditions: for Log10GI50: Ovarian Cancer, SK-OV-3; for Log10LC50 / Log10TGI50: SK-OV-3 (Ovarian Cancer); for Log10LC50: LC50: PG=−50; for Log10TGI50: TGI: PG=0
# [16] = system: SF-295; assay: NCI 60 cell line panel screen (SRB); assay type: cell-based, human
# [17] = system: NCI-H226; assay: NCI 60 cell line panel screen (SRB); assay type: cell-based, human; conditions: for Log10LC50 / Log10TGI50: NCI-H226 (Non-Small Cell Lung Cancer); for Log10LC50: LC50: PG=−50; for Log10TGI50: TGI: PG=0; for Log10GI50: Non-Small Cell Lung Cancer, NCI-H226
# [18] = system: HS 578T; assay: NCI 60 cell line panel screen (SRB); assay type: cell-based, human; conditions: for Log10GI50: Breast Cancer, HS 578T; for Log10LC50 / Log10TGI50: HS 578T (Breast Cancer); for Log10LC50: LC50: PG=−50; for Log10TGI50: TGI: PG=0
# [19] = system: SK-MEL-5; assay: NCI 60 cell line panel screen (SRB); assay type: cell-based, human
# [20] = system: DU-145; assay: NCI 60 cell line panel screen (SRB); assay type: cell-based, human
# [21] = system: P. berghei NY malaria parasite; assay: Antimalarial efficacies in vivo in mice
# Excerpt: Neither overt toxicity nor behavioral modification was observed due to drug administration in any of these mouse experiments.
# [22] = system: malaria parasite; assay: Efficacy Study Blood Schizontocidal Activity; assay type: in vivo; design: ED90: unit not given here
compound,measurement,setting,value
"CC1CCC2C(C)C(CC(O)(CO)CC3OC4OC5(C)CCC6C(C)CCC(C3C)C46OO5)OC3OC4(C)CCC1C32OO4 (stereo not drawn) [Compound 5, bis-trioxane vicinal diol]",Log10LC50,"[1]; ACHN (Renal Cancer), LC50: PG=−50",4.47 log10M
same,Log10TGI50,"[1]; ACHN (Renal Cancer), TGI: PG=0",<−8.00 log10M
same,Log10GI50,"[1]; Renal Cancer, ACHN",<−8.00
same,Log10LC50,"[2]; LOX IMVI (Melanoma), LC50: PG=−50",−4.44 log10M
same,Log10TGI50,"[2]; LOX IMVI (Melanoma), TGI: PG=0",−5.47 log10M
same,Log10GI50,"[2]; Melanoma, LOX IMVI",<−8.00
same,Log10LC50,"[3]; OVCAR-4 (Ovarian Cancer), LC50: PG=−50",−4.12 log10M
same,Log10TGI50,"[3]; OVCAR-4 (Ovarian Cancer), TGI: PG=0",−4.55 log10M
same,Log10GI50,"[3]; Ovarian Cancer, OVCAR-4",−4.99
same,Log10GI50,"[4]; Colon Cancer, HCC-2998",−4.65
same,Log10LC50,"[4]; HCC-2998 (Colon Cancer), LC50: PG=−50",>−4.00 log10M
same,Log10TGI50,"[4]; HCC-2998 (Colon Cancer), TGI: PG=0",−4.23 log10M
same,Log10GI50,"[5]; Colon Cancer, SW-620",−4.97
same,Log10LC50,"[5]; SW-620 (Colon Cancer), LC50: PG=−50",>−4.00 log10M
same,Log10TGI50,"[5]; SW-620 (Colon Cancer), TGI: PG=0",>−4.00 log10M
same,Log10LC50,[6],>−4.00 log10M
same,Log10TGI50,[6],>−4.00 log10M
same,Log10GI50,[6],−4.59
same,Log10GI50,[7],<−8.00
same,Log10LC50,[7],>−4.00 log10M
same,Log10TGI50,[7],−4.47 log10M
same,Log10LC50,"[8]; A498 (Renal Cancer), LC50: PG=−50",−4.21 log10M
same,Log10TGI50,"[8]; A498 (Renal Cancer), TGI: PG=0",−4.51 log10M
same,Log10GI50,"[8]; Renal Cancer, A498",−4.81
same,Log10GI50,[9],−4.94
same,Log10LC50,[9],−4.12 log10M
same,Log10TGI50,[9],−4.53 log10M
same,Log10LC50,[10],−4.05 log10M
same,Log10TGI50,[10],−4.49 log10M
same,Log10GI50,[10],−4.93
same,Log10LC50,[11],>−4.00 log10M
same,Log10TGI50,[11],−4.33 log10M
same,Log10GI50,[11],−4.78
same,Log10LC50,[12]; LC50: PG=−50,−4.24 log10M
same,Log10TGI50,[12]; TGI: PG=0,−4.67 log10M
same,Log10GI50,"[13]; Renal Cancer, SN12C",−7.60
same,Log10LC50,"[13]; SN12C (Renal Cancer), LC50: PG=−50",−4.26 log10M
same,Log10TGI50,"[13]; SN12C (Renal Cancer), TGI: PG=0",−4.72 log10M
same,Log10GI50,[14],−7.68
same,Log10LC50,[14],−4.08 log10M
same,Log10TGI50,[14],−4.61 log10M
same,Log10GI50,[15],−4.62
same,Log10LC50,[15],>−4.00 log10M
same,Log10TGI50,[15],−4.15 log10M
same,Log10GI50,"[16]; CNS Cancer, SF-295",−4.94
same,Log10LC50,"[16]; SF-295 (CNS Cancer), LC50: PG=−50",−4.04 log10M
same,Log10TGI50,"[16]; SF-295 (CNS Cancer), TGI: PG=0",−4.49 log10M
same,Log10LC50,[17],−4.11 log10M
same,Log10TGI50,[17],−4.49 log10M
same,Log10GI50,[17],−4.87
same,Log10GI50,[18],−4.72
same,Log10LC50,[18],>−4.00 log10M
same,Log10TGI50,[18],−4.08 log10M
same,Log10GI50,"[19]; Melanoma, SK-MEL-5",−7.69
same,Log10LC50,"[19]; SK-MEL-5 (Melanoma), LC50: PG=−50",−4.21 log10M
same,Log10TGI50,"[19]; SK-MEL-5 (Melanoma), TGI: PG=0",−4.64 log10M
same,Log10LC50,"[20]; DU-145 (Prostate Cancer), LC50: PG=−50",−4.13 log10M
same,Log10TGI50,"[20]; DU-145 (Prostate Cancer), TGI: PG=0",−4.48 log10M
same,Log10GI50,"[20]; Prostate Cancer, DU-145",−4.83
"CC1CCC2C(C)C(CC(O)(CC3OC4OC5(C)CCC6C(C)CCC(C3C)C46OO5)CS(=O)(=O)c3ccc(C(=O)O)cc3)OC3OC4(C)CCC1C32OO4 (stereo not drawn) [Compound 10c, bis-trioxane β-hydroxysulfone benzoic acid]",Log10LC50,[6],−4.42 log10M
same,Log10TGI50,[6],−4.91 log10M
same,Log10GI50,[6],<−8.30
same,Log10GI50,[7],<−8.30
same,Log10LC50,[7],−5.23 log10M
same,Log10TGI50,[7],<−8.30 log10M
same,Log10GI50,[9],<−8.30
same,Log10LC50,[9],−4.59 log10M
same,Log10TGI50,[9],−5.14 log10M
same,Log10LC50,[10],−4.52 log10M
same,Log10TGI50,[10],−5.05 log10M
same,Log10GI50,[10],<−8.30
same,Log10LC50,[11],−4.88 log10M
same,Log10TGI50,[11],<−8.30 log10M
same,Log10GI50,[11],<−8.30
same,Log10GI50,[14],<−8.30
same,Log10LC50,[14],−4.72 log10M
same,Log10TGI50,[14],−5.22 log10M
same,Log10GI50,[15],−6.82
same,Log10LC50,[15],−4.47 log10M
same,Log10TGI50,[15],−4.92 log10M
same,Log10LC50,[17],−4.82 log10M
same,Log10TGI50,[17],<−8.30 log10M
same,Log10GI50,[17],<−8.30
same,ED50,[21]; route IV,2.7 mg/kg × 4
same,ED90,[21]; route IV,10.0 mg/kg × 4
same,% Parasite Supression at 10 mg/kg,[21]; route IV,83.4%
same,ED50,[21]; route PO,7.5 mg/kg × 4
same,ED90,[21]; route PO,35.0 mg/kg × 4
same,% Parasite Supression at 10 mg/kg,[21]; route PO,46.1%
same,Log10GI50,[18],−4.82
same,Log10LC50,[18],>−4.30 log10M
same,Log10TGI50,[18],−4.53 log10M
"C[C@@H]1CC[C@H]2[C@@H](C)C(CC(O)(CC3OC4O[C@]5(C)CC[C@H]6[C@H](C)CC[C@@H]([C@H]3C)C46OO5)c3ccc(C(=O)O)cc3)OC3O[C@]4(C)CCC1C32OO4 (stereo partly drawn) [Compound 11b, bis-trioxane tertiary alcohol benzoic acid]",Log10LC50,[6],>−4.30 log10M
same,Log10TGI50,[6],>−4.30 log10M
same,Log10GI50,[6],−7.81
same,Log10GI50,[7],<−8.30
same,Log10LC50,[7],−5.95 log10M
same,Log10TGI50,[7],<−8.30 log10M
same,Log10GI50,[9],−7.72
same,Log10LC50,[9],>−4.30 log10M
same,Log10TGI50,[9],>−4.30 log10M
same,Log10LC50,[10],>−4.30 log10M
same,Log10TGI50,[10],>−4.30 log10M
same,Log10GI50,[10],−7.43
same,Log10LC50,[11],>−4.30 log10M
same,Log10TGI50,[11],−6.95 log10M
same,Log10GI50,[11],<−8.30
same,Log10GI50,[14],<−8.30
same,Log10LC50,[14],>−4.30 log10M
same,Log10TGI50,[14],−7.39 log10M
same,Log10LC50,[15],>−4.30 log10M
same,Log10TGI50,[15],>−4.30 log10M
same,Log10GI50,[18],−5.15
same,Log10LC50,[18],>−4.30 log10M
same,Log10TGI50,[18],>−4.31 log10M
"CC1CCC2C(C)C(CC(COCC(=O)O)CC3OC4OC5(C)CCC6C(C)CCC(C3C)C46OO5)OC3OC4(C)CCC1C32OO4 (stereo not drawn) [Compound 12b, bis-trioxane O-acetic acid]",Log10TGI50,[6],>−4.30 log10M
same,Log10GI50,[6],−6.68
same,Log10TGI50,[7],<−8.30 log10M
same,ED50,[22]; Route: IV,5.2
same,ED90,[22]; Route: IV,10.0
same,ED50,[22]; Route: PO,6.0
same,ED90,[22]; Route: PO,19.0
same,Log10TGI50,[10],>−4.30 log10M
same,Log10GI50,[10],−7.00
same,Log10TGI50,[11],−6.39 log10M
same,Log10GI50,[15],>−4.30
same,Log10TGI50,[15],>−4.30 log10M
same,ED50,[21]; route IV,1.0 mg/kg × 4
same,ED90,[21]; route IV,3.5 mg/kg × 4
same,% Parasite Supression at 10 mg/kg,[21]; route IV,95.7%
same,ED50,[21]; route PO,6.5 mg/kg × 4
same,ED90,[21]; route PO,17.0 mg/kg × 4
same,% Parasite Supression at 10 mg/kg,[21]; route PO,46.5%
same,Log10GI50,[18],>−4.30
same,Log10TGI50,[18],>−4.30 log10M
